Results reported in US20180200257A1, “METHODS FOR THE TREATMENT OF INFLAMMATORY DISORDERS” (Galapagos NV, priority 2015, published 2018).

Tested on: subjects with moderately to severely active RA who have an inadequate response to methotrexate (MTX)
Test: Study 1 (add-on to MTX) - serum CRP values
Type: in vivo, human
Experimental: Double-blind, placebo-controlled add on study in subjects with moderately to severely active RA who have an inadequate response to methotrexate (MTX) (oral or parenteral).
595 subjects randomized to one of 6 dose regimens of Compound 1 (dosed as [Compound 1:HCl:3H2O]) (3 dose levels administered either once or twice daily) or placebo on top of each subject's stable dose of MTX.
Compound 1 (dosed as [Compound 1:HCl:3H2O]) is dosed for twelve weeks once daily (q.d.) (50 mg, 100 mg or 200 mg) or twice daily (b.i.d.) (25 mg, 50 mg or 100 mg); or placebo.
At Week 12, the subjects on placebo who have not achieved 20% improvement in swollen joint count (SJC66) and tender joint count (TJC68) are re-randomized automatically to receive Compound 1 (dosed as a [Compound 1:HCl:3H2O]) either at 100 mg q.d. or 50 mg b.i.d. doses in a blinded fashion; subjects on 50 mg q.d. who have not achieved 20% improvement in SJC66 and TJC68 will be assigned to 100 mg q.d. and subjects on 25 mg b.i.d. that have not achieved a 20% improvement in SJC66 and TJC68 will be assigned to 50 mg b.i.d. Subjects who switch treatment at week 12 are handled as if they discontinued at week 12 for the purpose of statistical analysis, whereas subjects in the other groups will maintain their randomized treatment until Week 24.
CRP determination is available at Quest Diagnostics, Clinical Trials, Quest House, 125-135 Staines Road, Hounslow, Middlesex, TW3 3JB, United Kingdom under Catalogue n#86140.
The determination of CRP is made using Immunoturbidimetric assay for the in vitro quantitative determination of CRP in human serum and plasma on Roche/Hitachi cobas c systems, wherein human CRP agglutinates with latex particles coated with monoclonal anti-CRP antibodies. The aggregates are determined turbidimetrically (Eda et al., 1998; Price et al., 1987).
Human serum and plasma samples CRP determination was done on a Roche/Hitachi Cobas c 301 c 501/502 system which automatically calculate the analyte concentration of each sample. Samples containing precipitates are centrifuged before performing the assay.
The machine parameters are listed in Table XCI and Table XCII below, and the results at 12 weeks v using either LOCF are shown in Table XCIII and below. The Hommel-corrected p-value for the pairwise comparisons of each group with placebo is shown.
The number of subjects (N) provided in each groups corresponds to the number of subjects starting the study in each group, and the CRP data reported below corresponds to the responding subjects continuing for the entire 24 weeks on their initial treatment course.

SMILES: O=C(Nc1nc2cccc(-c3ccc(CN4CCS(=O)(=O)CC4)cc3)n2n1)C1CC1 [Compound 1, cyclopropanecarboxylic acid {5-[4-(1,1-dioxo-thiomorpholin-4-ylmethyl)-phenyl]-[1,2,4]triazolo[1,5-a]pyridin-2-yl}-amide]
- CRP mean CFB mg/L (LOCF) (50 mg q.d., week 1, 12 weeks results): -7.95 mg/L
- CRP mean CFB mg/L (LOCF) (50 mg q.d., week 1, 24 weeks results): -7.95 mg/L
- CRP mean CFB mg/L (LOCF) (50 mg q.d., week 2, 12 weeks results): -8.23 mg/L
- CRP mean CFB mg/L (LOCF) (50 mg q.d., week 2, 24 weeks results): -8.23 mg/L
- CRP mean CFB mg/L (LOCF) (50 mg q.d., week 4, 12 weeks results): -10.18 mg/L
- CRP mean CFB mg/L (LOCF) (50 mg q.d., week 4, 24 weeks results): -10.18 mg/L
- CRP mean CFB mg/L (LOCF) (50 mg q.d., week 12, 12 weeks results): -13.15 mg/L
- CRP mean CFB mg/L (LOCF) (50 mg q.d., week 12, 24 weeks results): -13.15 mg/L
- CRP mean CFB mg/L (LOCF) (50 mg q.d., week 16, 24 weeks results): -13.55 mg/L
- CRP mean CFB mg/L (LOCF) (50 mg q.d., week 20, 24 weeks results): -13.12 mg/L
- CRP mean CFB mg/L (LOCF) (50 mg q.d., week 24, 24 weeks results): -15.22 mg/L
- CRP mean CFB mg/L (LOCF) (50 mg q.d., week 8, 12 weeks results): -12.02 mg/L
- CRP mean CFB mg/L (LOCF) (50 mg q.d., week 8, 24 weeks results): -12.02 mg/L
- CRP mean CFB mg/L (LOCF) (100 mg q.d., week 1, 12 weeks results): -11.02 mg/L
- CRP mean CFB mg/L (LOCF) (100 mg q.d., week 1, 24 weeks results): -11.02 mg/L
- CRP mean CFB mg/L (LOCF) (100 mg q.d., week 2, 12 weeks results): -12.94 mg/L
- CRP mean CFB mg/L (LOCF) (100 mg q.d., week 2, 24 weeks results): -12.94 mg/L
- CRP mean CFB mg/L (LOCF) (100 mg q.d., week 4, 12 weeks results): -13.18 mg/L
- CRP mean CFB mg/L (LOCF) (100 mg q.d., week 4, 24 weeks results): -13.18 mg/L
- CRP mean CFB mg/L (LOCF) (100 mg q.d., week 8, 24 weeks results): -12.48 mg/L
- CRP mean CFB mg/L (LOCF) (100 mg q.d., week 12, 12 weeks results): -13.57 mg/L
- CRP mean CFB mg/L (LOCF) (100 mg q.d., week 12, 24 weeks results): -13.57 mg/L
- CRP mean CFB mg/L (LOCF) (100 mg q.d., week 16, 24 weeks results): -11.66 mg/L
- CRP mean CFB mg/L (LOCF) (100 mg q.d., week 20, 24 weeks results): -14.50 mg/L
- CRP mean CFB mg/L (LOCF) (100 mg q.d., week 24, 24 weeks results): -14.89 mg/L
- CRP mean CFB mg/L (LOCF) (100 mg q.d., week 8, 12 weeks results): -12.48 mg/L
- CRP mean CFB mg/L (LOCF) (200 mg q.d., week 1, 12 weeks results): -17.06 mg/L
- CRP mean CFB mg/L (LOCF) (200 mg q.d., week 1, 24 weeks results): -17.06 mg/L
- CRP mean CFB mg/L (LOCF) (200 mg q.d., week 2, 12 weeks results): -17.51 mg/L
- CRP mean CFB mg/L (LOCF) (200 mg q.d., week 2, 24 weeks results): -17.51 mg/L
- CRP mean CFB mg/L (LOCF) (200 mg q.d., week 4, 12 weeks results): -17.94 mg/L
- CRP mean CFB mg/L (LOCF) (200 mg q.d., week 4, 24 weeks results): -17.94 mg/L
- CRP mean CFB mg/L (LOCF) (200 mg q.d., week 8, 24 weeks results): -17.22 mg/L
- CRP mean CFB mg/L (LOCF) (200 mg q.d., week 12, 12 weeks results): -17.24 mg/L
- CRP mean CFB mg/L (LOCF) (200 mg q.d., week 12, 24 weeks results): -17.24 mg/L
- CRP mean CFB mg/L (LOCF) (200 mg q.d., week 16, 24 weeks results): -20.38 mg/L
- CRP mean CFB mg/L (LOCF) (200 mg q.d., week 20, 24 weeks results): -17.89 mg/L
- CRP mean CFB mg/L (LOCF) (200 mg q.d., week 24, 24 weeks results): -15.57 mg/L
- CRP mean CFB mg/L (LOCF) (200 mg q.d., week 8, 12 weeks results): -17.22 mg/L
- CRP mean CFB mg/L (LOCF) (2 × 25 mg b.i.d., week 2, 12 weeks results): -10.06 mg/L
- CRP mean CFB mg/L (LOCF) (2 × 25 mg b.i.d., week 2, 24 weeks results): -10.06 mg/L
- CRP mean CFB mg/L (LOCF) (2 × 25 mg b.i.d., week 4, 12 weeks results): -7.72 mg/L
- CRP mean CFB mg/L (LOCF) (2 × 25 mg b.i.d., week 4, 24 weeks results): -7.72 mg/L
- CRP mean CFB mg/L (LOCF) (2 × 25 mg b.i.d., week 8, 12 weeks results): -10.94 mg/L
- CRP mean CFB mg/L (LOCF) (2 × 25 mg b.i.d., week 8, 24 weeks results): -10.94 mg/L
- CRP mean CFB mg/L (LOCF) (2 × 25 mg b.i.d., week 12, 12 weeks results): -10.26 mg/L
- CRP mean CFB mg/L (LOCF) (2 × 25 mg b.i.d., week 12, 24 weeks results): -10.26 mg/L
- CRP mean CFB mg/L (LOCF) (2 × 25 mg b.i.d., week 16, 24 weeks results): -12.55 mg/L
- CRP mean CFB mg/L (LOCF) (2 × 25 mg b.i.d., week 20, 24 weeks results): -12.20 mg/L
- CRP mean CFB mg/L (LOCF) (2 × 25 mg b.i.d., week 24, 24 weeks results): -11.68 mg/L
- CRP mean CFB mg/L (LOCF) (2 × 25 mg b.i.d., Week 1, 12 weeks results): -8.47 mg/L
- CRP mean CFB mg/L (LOCF) (2 × 25 mg b.i.d., Week 1, 24 weeks results): -8.47 mg/L
- CRP mean CFB mg/L (LOCF) (2 × 50 mg b.i.d., week 2, 12 weeks results): -11.03 mg/L
- CRP mean CFB mg/L (LOCF) (2 × 50 mg b.i.d., week 2, 24 weeks results): -11.03 mg/L
- CRP mean CFB mg/L (LOCF) (2 × 50 mg b.i.d., week 4, 12 weeks results): -13.28 mg/L
- CRP mean CFB mg/L (LOCF) (2 × 50 mg b.i.d., week 4, 24 weeks results): -13.28 mg/L
- CRP mean CFB mg/L (LOCF) (2 × 50 mg b.i.d., week 8, 12 weeks results): -13.25 mg/L
- CRP mean CFB mg/L (LOCF) (2 × 50 mg b.i.d., week 8, 24 weeks results): -13.25 mg/L
- CRP mean CFB mg/L (LOCF) (2 × 50 mg b.i.d., week 12, 12 weeks results): -12.97 mg/L
- CRP mean CFB mg/L (LOCF) (2 × 50 mg b.i.d., week 12, 24 weeks results): -12.97 mg/L
- CRP mean CFB mg/L (LOCF) (2 × 50 mg b.i.d., week 16, 24 weeks results): -12.57 mg/L
- CRP mean CFB mg/L (LOCF) (2 × 50 mg b.i.d., week 20, 24 weeks results): -13.16 mg/L
- CRP mean CFB mg/L (LOCF) (2 × 50 mg b.i.d., week 24, 24 weeks results): -11.96 mg/L
- CRP mean CFB mg/L (LOCF) (2 × 50 mg b.i.d., Week 1, 12 weeks results): -10.08 mg/L
- CRP mean CFB mg/L (LOCF) (2 × 50 mg b.i.d., Week 1, 24 weeks results): -10.08 mg/L
- CRP mean CFB mg/L (LOCF) (2 × 100 mg b.i.d., week 2, 12 weeks results): -19.69 mg/L
- CRP mean CFB mg/L (LOCF) (2 × 100 mg b.i.d., week 2, 24 weeks results): -19.69 mg/L
- CRP mean CFB mg/L (LOCF) (2 × 100 mg b.i.d., week 4, 12 weeks results): -20.64 mg/L
- CRP mean CFB mg/L (LOCF) (2 × 100 mg b.i.d., week 4, 24 weeks results): -20.64 mg/L
- CRP mean CFB mg/L (LOCF) (2 × 100 mg b.i.d., week 8, 12 weeks results): -21.32 mg/L
- CRP mean CFB mg/L (LOCF) (2 × 100 mg b.i.d., week 8, 24 weeks results): -21.32 mg/L
- CRP mean CFB mg/L (LOCF) (2 × 100 mg b.i.d., week 12, 12 weeks results): -20.54 mg/L
- CRP mean CFB mg/L (LOCF) (2 × 100 mg b.i.d., week 12, 24 weeks results): -20.54 mg/L
- CRP mean CFB mg/L (LOCF) (2 × 100 mg b.i.d., week 16, 24 weeks results): -21.34 mg/L
- CRP mean CFB mg/L (LOCF) (2 × 100 mg b.i.d., week 20, 24 weeks results): -20.80 mg/L
- CRP mean CFB mg/L (LOCF) (2 × 100 mg b.i.d., week 24, 24 weeks results): -20.82 mg/L
- CRP mean CFB mg/L (LOCF) (2 × 100 mg b.i.d., Week 1, 12 weeks results): -17.39 mg/L
- CRP mean CFB mg/L (LOCF) (2 × 100 mg b.i.d., Week 1, 24 weeks results): -17.39 mg/L
